Experimental data taken from US20220211726A1, “UVEAL MELANOMA TREATMENT” (Katholieke Universiteit Leuven, priority 2019, published 2022).

Columns and labels:
[1] = test system: uveal melanoma (UM 92.1) cell line; experiment: IncuCyte proliferation assay (% cell confluency); type: cell-based; settings: UM 92.1 (GNAQ mutant), increasing concentrations of Tigecycline, 72 h, FIG. 4
Procedure: (§1) For IncuCyte Proliferation Assays, cells were plated in 96-well plates (TPP) at the appropriate density (between 2.5×10^3, to 1.5×10^4). Cells were treated with increasing amounts of Tigecycline or Doxycycline and cultured for 72 h. Apoptotic cells were labelled with the IncuCyte Caspase 3/7 Green Apoptosis Assay Reagent (Essen BioScience). Four images per well were taken at 2-hour intervals using an IncuCyte ZOOM system (Essen BioScience). The percentage of cell confluency and fluorescent green counts indicating apoptotic cells were measured and analysed by the IncuCyte ZOOM software.

[2] = test system: uveal melanoma cell line (UM92.1); experiment: IncuCyte Caspase 3/7 Green apoptosis assay; type: cell-based; settings: UM92.1, increasing concentrations of Tigecycline
Procedure: as §1

[3] = test system: uveal melanoma PDX model Mel-077; experiment: Uveal melanoma PDX experiment, tumour volume; type: in vivo; settings: Mel-077 PDX mice, Tigecycline 50 mg/kg daily i.p. monotreatment vs vehicle (DMSO), FIG. 5
Procedure: Tumour pieces were implanted subcutaneously in the interscapular fat pad of female NMRI nude, 4-week-old females. Once tumours reached 250 mm^3, the mice were enrolled into treatment cohorts. Mice were treated with Tigecycline (50 mg/kg) administered by daily i.p. injection. No specific randomization method was used.

## CN(C)c1cc(NC(=O)CNC(C)(C)C)c(O)c2c1C[C@H]1C[C@H]3[C@H](N(C)C)C(O)=C(C(N)=O)C(=O)[C@@]3(O)C(O)=C1C2=O [Tigecycline]
[1]
  cell growth (measured as % of cell confluency): significant and dose-dependent decrease in cell growth
[2]
  apoptosis (activated caspase 3/7 staining): no increase in apoptosis
[3]
  tumour growth / progression (tumour volume): sufficient to stabilise tumour growth and significantly delay progression
